Experimental data as given in patent US12428377B2, “Sodium-hydrogen exchanger 3 inhibitor compounds” (Eli Lilly and Company, priority 2019, dated 2025).
Values joined by “and” are separate entries in the source; they are usually repeats but may differ in a detail not shown here. Equal entries are not always repeated. Where two headings read alike, the source gives them in different places.

Assays:
Assay type in all cases: in vivo, rat
male Sprague Dawley rats [1] = assay: Phosphate absorption 15 min after radiolabeled phosphate (Example 2, Compound A, combination); conditions: Example 2 0.4 mg/kg, plasma 15 min after radiolabeled phosphate, P=0.046 versus vehicle control
Method: Effect of Example 2 in Combination with an NPT2b Inhibitor (Compound A) on Phosphate Absorption and Intestinal Phosphate Retention in Rats
(§1) The purpose of this study is to investigate in rats the effect of Example 2, Compound A, and an Example 2/Compound A combination on phosphate absorption 15 min after dosing the compounds and the phosphate retained in the intestine 4.25 h after dosing the compounds. The latter is a measure of the oral phosphate load which is absorbed over an extended period.
(§2) Two vehicles are used in this study: 1) 1% HEC and 2) 0.46% poly-1-vinylpyrrolidone-co-vinyl acetate in water (PVP-VA vehicle). The vehicle control group in this study receives a 1:1 combination of the two vehicles.
The Example 2, Compound A and phosphate dosing solutions are prepared similarly as described above, except the doses are 0.4 mg/kg for Example 2 and 10 mg/kg for Compound A and they are prepared at a concentration where they would be dosed in a 5 mL/kg volume. […]
Male Sprague Dawley rats are fasted 4 h and then administered appropriate vehicles, 10 mg/kg Compound A, 0.4 mg/kg Example 2, or a combination of both compounds. […] Radioactivity in plasma is measured by scintillation counting and used to calculate the inhibition of phosphate absorption. […] Statistical significance is determined by ANOVA with a Dunnett's comparison to the Example 2/Compound A combination using JMP 12.1.

Male Sprague-Dawley rats = assay: Effect of Example 2 on sodium and phosphate absorption (urinary excretion after oral NaH2PO4 bolus); conditions: 4 h urine; for ED50: Rattus norvegicus, oral, NaH2PO4 bolus 690 mg/kg; for Ratio of Urinary-to-Dietary Phosphorus / Ratio of Urinary-to-Dietary Sodium: mean ± SEM
Method: Effect of Example 2 on Sodium and Phosphate Absorption Urinary sodium and phosphate excretion following an oral bolus dose of sodium phosphate is an indirect measure of sodium and phosphate absorption in the intestine. Male Sprague-Dawley rats at an age of about 7 weeks with body weights ranging from 195 to 221 g are randomized into groups based on equal mean body weights. Example 2 at 0.3 mg/mL (final dose 3 mg/kg dosed in 10 mL/kg volume) is formulated by adding 1% HEC to a glass vial containing a pre-weighed amount of compound, and then probe sonicating until it appears as a uniform suspension. […] The subsequent dosing solutions of Example 2 are prepared by serial dilutions with 1% HEC. NaH2PO4 at 34.5 mg/ml (final dose 690 mg/kg dosed in 20 ml/kg volume) is formulated by adding sterile water. On the day of the study, the animals are placed into clean cages without food but with access to water for a 4 h fast before the study. Rats are orally dosed with vehicle or varying doses of Example 2. 15 min later, animals are dosed with sterile water or NaH2PO4, then immediately transferred to metabolic cages. Urine samples are collected for 4 h. Net urine volume is recorded. Urinary sodium, creatinine, and phosphate are assessed using a clinical biochemistry analyzer. Values expressed as the ratio of urinary-to-dietary phosphorus or sodium are calculated and presented as mean±SEM. Curves are fitted with a 4-parameter logistic curve fitting tool GraphPod Prism 6 to calculate the ED50. For the purpose of curve fitting, the dose of Example 2 is artificially set to 0.00001 mg/kg in the software for the vehicle-alone group.

[2] = tested on: male spontaneously hypertensive (SHR) rats; assay: Effect on blood pressure (telemetry) in spontaneously hypertensive rats; conditions: 0.15 mg/kg/day
Text: Effect of Example 2 on Blood Pressure Male spontaneously hypertensive (SHR) rats weighing 250-300 g with age of 7 weeks are acclimated to a reversed light cycle (8:00 am lights off and 8:00 pm lights on) and fed regular chow and water ad libitum. Implantable telemetry devices (model TA11PA-C40, Data Sciences International) are implanted into the abdominal aorta. After recovering from surgery, rats are placed in individual cages in a quiet telemetry facility room for measuring blood pressure (mean arterial pressure, MAP) and heart rate (HR). Digitized pressure signals are acquired for 20 second every 5 min using DSI Dataquest IV 4.0 software. The 31 SHR rats are randomized by MAP into two groups and treated twice daily for 14 days with vehicle (n=15) (10% acacia, 0.05% antifoam in purified water) or 0.15 mg/kg/day Example 2. The first dose is given between 6:00 and 6:30 am (2 h prior to lights off) and the second dose is given between 4:00 and 4:30 pm. The daily food consumption and body weight gain are also monitored. MAP, HR, and body weight (BW) data are analyzed by repeated measures analysis of covariance (ANCOVA) with baseline as the covariate. Food consumption (FC) data are analyzed by repeated measures analysis of variance (ANOVA). The mean blood pressure across the time course of the study (days 1-14) for the group treated with 0.15 mg/kg/day of Example 2 is 4.83 mm Hg less than that of the control group with a p-value of 0.0007 (Table 1).

male Sprague Dawley rats [3] = assay: Intestinal phosphate retention: percent radiolabeled dose recovered in gastrointestinal tract; conditions: Example 2 0.4 mg/kg, 4 h after radiolabeled phosphate
Method: as §1, §2
The Example 2, Compound A and phosphate dosing solutions are prepared similarly as described above, except the doses are 0.4 mg/kg for Example 2 and 10 mg/kg for Compound A and they are prepared at a concentration where they would be dosed in a 5 mL/kg volume. The Example 2 and Compound A alone groups are mixed 1:1 with the vehicle of the other compound, while the Compound A and Example 2 are mixed 1:1 prior to dosing. The final dosing volume is 10 mL/kg in all cases.
4 h after the radiolabeled phosphate solution is dosed, stomach, small intestine, large intestine, and feces are collected, weighed and digested with 1N NaOH overnight at 37° C. Radioactivity in each fraction is measured by scintillation counting.
The percent dose recovered in gastrointestinal tract is defined as radioactivity recovered in stomach, small intestine, large intestine and feces compared to the amount dosed. Data is presented as mean±SEM with animal numbers equal to 8 for the groups. Statistical significance is determined by ANOVA with a Dunnett's comparison to the Example 2/Compound A combination using JMP 12.1.
The percent dose recovered in gastrointestinal tract data is further analyzed by a two-way ANOVA in JMP 12.1 to test for additivity of the effects of Example 2 and Compound A on inhibiting phosphate absorption. […] That is, the inhibitory effect of the combination is greater than the sum of the individual compound effects.

`CN1Cc2c(Cl)cc(Cl)cc2[C@H](c2cccc(S(=O)(=O)NCCOCCOCCN/C(=N\C(N)=O)NCCCCN/C(=N/C(N)=O)NCCOCCOCCNS(=O)(=O)c3cccc([C@@H]4CN(C)Cc5c(Cl)cc(Cl)cc54)c3)c2)C1.Cl.Cl` [Example 2, [[4-[[N′-Carbamoyl-N-[2-[2-[2-[[3-[(4S)-6,8-dichloro-2-methyl-3,4-dihydro-1H-isoquinolin-4-yl]phenyl]sulfonylamino]ethoxy]ethoxy]ethyl]carbamimidoyl]amino]butylamino]-[2-[2-[2-[[3-[(4S)-6,8-dichloro-2-methyl-3,4-dihydro-1H-isoquinolin-4-yl]phenyl]sulfonylamino]ethoxy]ethoxy]ethylamino]methylene]urea dihydrochloride] was tested, and the “Inhibition of phosphate absorption” value (male Sprague Dawley rats [1]) was 29%, the ED50 (Male Sprague-Dawley rats; read-out: ED50 on sodium excretion) was 0.058 mg/kg and the ED50 (Male Sprague-Dawley rats; read-out: ED50 on urinary phosphorus excretion) was 0.041 mg/kg. For the same molecule, the “Ratio of Urinary-to-Dietary Phosphorus” value (Male Sprague-Dawley rats; oral 0.001 mg/kg) was 0.337 ± 0.017, the “Ratio of Urinary-to-Dietary Sodium” value (Male Sprague-Dawley rats; oral 0.001 mg/kg) was 0.326 ± 0.042 and the “Ratio of Urinary-to-Dietary Phosphorus” value (Male Sprague-Dawley rats; oral 0.003 mg/kg) was 0.350 ± 0.023. For the same molecule, the “Ratio of Urinary-to-Dietary Sodium” value (Male Sprague-Dawley rats; oral 0.003 mg/kg) was 0.413 ± 0.055, the “Ratio of Urinary-to-Dietary Phosphorus” value (Male Sprague-Dawley rats; oral 0.01 mg/kg) was 0.320 ± 0.042 and the “Ratio of Urinary-to-Dietary Sodium” value (Male Sprague-Dawley rats; oral 0.01 mg/kg) was 0.290 ± 0.06. For the same molecule, the “Ratio of Urinary-to-Dietary Phosphorus” value (Male Sprague-Dawley rats; oral 0.03 mg/kg) was 0.268 ± 0.04, the “Ratio of Urinary-to-Dietary Sodium” value (Male Sprague-Dawley rats; oral 0.03 mg/kg) was 0.276 ± 0.06 and the “Ratio of Urinary-to-Dietary Phosphorus” value (Male Sprague-Dawley rats; oral 0.1 mg/kg) was 0.197 ± 0.045. For the same molecule, the “Ratio of Urinary-to-Dietary Sodium” value (Male Sprague-Dawley rats; oral 0.1 mg/kg) was 0.105 ± 0.042, the “Ratio of Urinary-to-Dietary Phosphorus” value (Male Sprague-Dawley rats; oral 0.3 mg/kg) was 0.168 ± 0.027 and the “Ratio of Urinary-to-Dietary Sodium” value (Male Sprague-Dawley rats; oral 0.3 mg/kg) was 0.039 ± 0.010. The “Ratio of Urinary-to-Dietary Phosphorus” value (Male Sprague-Dawley rats; oral 1 mg/kg) was 0.191 ± 0.039, the “Ratio of Urinary-to-Dietary Sodium” value (Male Sprague-Dawley rats; oral 1 mg/kg) was 0.051 ± 0.027 and the “Ratio of Urinary-to-Dietary Phosphorus” value (Male Sprague-Dawley rats; oral 3 mg/kg) was 0.144 ± 0.009. The “Ratio of Urinary-to-Dietary Sodium” value (Male Sprague-Dawley rats; oral 3 mg/kg) was 0.022 ± 0.009, the “Effect on body weight (BW)” value ([2]; 14 days) was “No significant effect” and the “Effect on food consumption (FC)” value ([2]; 14 days) was “No significant effect”. The “Effect on heart rate (HR)” value ([2]; 14 days) was “No significant effect”, the “Difference in mean blood pressure vs vehicle” value ([2]; days 1-14, less than control, p-value 0.0007) was 4.83 mm Hg and the “Mean blood pressure over days 1-14” value ([2]; twice daily for 14 days) was 153.33 mm Hg. The “Percent Dose Recovered, Feces” value (male Sprague Dawley rats [3]) was less than 0.1%, the “Percent Dose Recovered, Large Intestine” value (male Sprague Dawley rats [3]; mean ± SEM) was 18.16 ± 2.58% and the “Percent Dose Recovered, Small Intestine” value (male Sprague Dawley rats [3]; mean ± SEM) was 8.64 ± 0.32%. For the same molecule, the “Percent Dose Recovered, Stomach” value (male Sprague Dawley rats [3]; mean ± SEM) was 3.9 ± 0.49% and the “Percent Dose Recovered, Total” value (male Sprague Dawley rats [3]; mean ± SEM, dihydrochloride, 0.4 mg/kg) was 31% and 30.7 ± 2.43%.
